# Assay: In vivo PK studies in dog (oral administration): plasma levels of nalmefene
# Settings: oral administration of nalmefene itself, Example C.2
# Description: Doses at 10 mg/kg or 20 mg/kg body weight of a compound of formula (I) or of nalmefene itself in a solution of 20% HP-β-CD (hydroxypropyl-β-cyclodextrines) were used and orally administered to dogs.
# Blood samples were taken over a period of 192 hours after oral administration. Blood samples were processed to obtain plasma. Plasma samples were analysed individually for nalmefene by means of a qualified LC-MS/MS-method.
smiles,measurement,value
"C=C1CC[C@@]2(O)[C@H]3Cc4ccc(O)c5c4[C@@]2(CCN3CC2CC2)[C@H]1O5 [nalmefene, 17-cyclopropylmethyl-4,5α-epoxy-6-methylenemorphinan-3,14-diol]",time for which plasma levels of nalmefene can be measured after oral administration (in words),a few hours

# From patent US20110053971A1, “NALMEFENE DI-ESTER PRODRUGS” (JANSSEN PHARMACEUTICA NV, priority 2008, published 2011)
